Data on nine compounds can be found in PubChem BioAssay (NCI).

SMILES strings stand for the structures.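 1) Cells in 96-well plates. 2) Compound, 48 h, 5 concentrations. 3) Linear interpolation between surrounding doses. 4) Unreached endpoint = highest concentration. GI50: concentration for 50% inhibition of growth. TGI marks complete inhibition of growth.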 Where only a bound is given, the exact number is not on record here.

Broadly, the GI50 is the concentration that inhibits growth by half. A word on the TGI: it is the concentration at which net growth stops. A lower TGI goes with more potent growth arrest.

Among the test systems are SK-OV-3 ovarian; HCC-2998 colon; OVCAR-4 ovarian; HOP-92 NSCLC; SW-620 colon; OVCAR-3 ovarian; DU-145 prostate; SF-295 CNS; SF-268 CNS; SK-MEL-2 melanoma.
Assay in all cases: DTP human tumour cell line panel, 48 h

With `N#C/C(=C\c1cc2ccc(N3CCC3)cc2oc1=O)C(=O)N(CC(=O)O)CC(=O)O`, the GI50 in the experiment with SK-OV-3 ovarian, in the experiment with HCC-2998 colon, in the experiment on OVCAR-4 ovarian, with HOP-92 NSCLC, in the experiment with SW-620 colon and in the experiment with OVCAR-3 ovarian was greater than 100 µM in each case. The GI50 with DU-145 prostate, in the experiment on SF-295 CNS, in the experiment on SF-268 CNS and in the experiment with SK-MEL-2 melanoma was greater than 100 µM in each case. The TGI in the experiment on SK-OV-3 ovarian, in the experiment with HCC-2998 colon, in the experiment with OVCAR-4 ovarian, in the experiment on HOP-92 NSCLC, in the experiment with SW-620 colon and in the experiment on OVCAR-3 ovarian was greater than 100 µM in each case. Also, the TGI in the experiment with DU-145 prostate, in the experiment on SF-295 CNS, with SF-268 CNS and in the experiment with SK-MEL-2 melanoma was greater than 100 µM each time.

For `CN1C(=NCCO)NS(=O)(=O)c2ccccc21`, the TGI in the experiment on SK-OV-3 ovarian, in the experiment on HCC-2998 colon, with OVCAR-4 ovarian, in the experiment on HOP-92 NSCLC, in the experiment on SW-620 colon and in the experiment on OVCAR-3 ovarian was greater than 100 µM each time. In addition, the TGI in the experiment with DU-145 prostate, in the experiment on SF-295 CNS, in the experiment on SF-268 CNS and in the experiment on SK-MEL-2 melanoma was greater than 100 µM in each case.

Regarding `CCn1ccnc1C(=O)/C=C/c1ccc(CC(=O)Nc2ccc(F)cc2)cc1`, the GI50 is 6.97 µM in the experiment with SK-OV-3 ovarian; 5.1 µM in the experiment on HCC-2998 colon; 3.31 µM in the experiment on OVCAR-4 ovarian; 3.32 µM with HOP-92 NSCLC; 4.29 µM with SW-620 colon; 3.92 µM with OVCAR-3 ovarian. The GI50 is 4.45 µM in the experiment on DU-145 prostate, 4.41 µM in the experiment on SF-295 CNS, 3.81 µM in the experiment with SF-268 CNS and 6.26 µM with SK-MEL-2 melanoma. The TGI with SK-OV-3 ovarian is greater than 16.7 µM; with HCC-2998 colon, greater than 16.7 µM; in the experiment with OVCAR-4 ovarian it was greater than 16.7 µM; in the experiment on HOP-92 NSCLC, 8.83 µM; in the experiment on SW-620 colon, greater than 16.7 µM; in the experiment with OVCAR-3 ovarian, greater than 16.7 µM. Also, the TGI with DU-145 prostate, in the experiment on SF-295 CNS, with SF-268 CNS and in the experiment on SK-MEL-2 melanoma was greater than 16.7 µM each time.

In the case of `O=C1/C(=C/c2ccccc2[N+](=O)[O-])COc2ccc(O)cc21`, the GI50 was 5.25 µM in the experiment with SK-OV-3 ovarian; 1.51 µM in the experiment with HCC-2998 colon; 1.9 µM in the experiment on OVCAR-4 ovarian; 2.75 µM with HOP-92 NSCLC; 0.448 µM with SW-620 colon; 0.523 µM with OVCAR-3 ovarian. Also, the GI50 in the experiment on DU-145 prostate was 1.72 µM; in the experiment on SF-295 CNS, 7.13 µM; in the experiment with SF-268 CNS, 2.4 µM; with SK-MEL-2 melanoma, 2.98 µM. Also, the TGI in the experiment on SK-OV-3 ovarian worked out at 17.6 µM; in the experiment on HCC-2998 colon, 2.94 µM; with OVCAR-4 ovarian, 8.63 µM; in the experiment with HOP-92 NSCLC it was 12.5 µM; in the experiment with SW-620 colon, 1.81 µM; in the experiment with OVCAR-3 ovarian, 1.76 µM. For the same compound, the TGI came to 4.29 µM in the experiment on DU-145 prostate, 25.6 µM in the experiment with SF-295 CNS, 7.97 µM in the experiment with SF-268 CNS and 11 µM with SK-MEL-2 melanoma.

Consider `CN(C)c1nc(N)c(C#N)c(C#N)c1C#N`, for which the TGI in the experiment on SK-OV-3 ovarian, with HCC-2998 colon, in the experiment on OVCAR-4 ovarian, in the experiment with HOP-92 NSCLC, in the experiment with SW-620 colon and in the experiment with OVCAR-3 ovarian was greater than 10 µM each time. Also, the TGI in the experiment on DU-145 prostate, with SF-295 CNS, in the experiment on SF-268 CNS and in the experiment on SK-MEL-2 melanoma was greater than 10 µM each time.

`Clc1nc(Cl)c2ncn(CCOCCn3cnc4c(Cl)nc(Cl)nc43)c2n1`: the GI50 was 1.44 µM in the experiment with SK-OV-3 ovarian; 0.213 µM in the experiment on HCC-2998 colon; 0.283 µM in the experiment with OVCAR-4 ovarian; 0.2 µM in the experiment on HOP-92 NSCLC; 0.212 µM with SW-620 colon; 0.199 µM with OVCAR-3 ovarian. Moreover, the 50% growth inhibitory concentration (GI50) in the experiment on DU-145 prostate was 0.196 µM; with SF-295 CNS, 1.33 µM; with SF-268 CNS it was 0.194 µM. Moreover, the TGI with SK-OV-3 ovarian came to 2.77 µM; in the experiment on HCC-2998 colon it was 0.382 µM; with OVCAR-4 ovarian it was 0.707 µM; with HOP-92 NSCLC, 0.687 µM; in the experiment with SW-620 colon, 0.44 µM; in the experiment with OVCAR-3 ovarian, 0.346 µM. The TGI with DU-145 prostate amounted to 0.343 µM; in the experiment on SF-295 CNS, 2.83 µM; in the experiment with SF-268 CNS it was 0.347 µM.

Regarding `c1ccc(C2CCCCC2)c(OCCCCCN2CCNCC2)c1`, the GI50 is 6.51 µM in the experiment on SK-OV-3 ovarian; 1.32 µM in the experiment with HCC-2998 colon; 4.01 µM in the experiment with OVCAR-4 ovarian; 4.44 µM with HOP-92 NSCLC; 1.82 µM in the experiment on SW-620 colon; 2.74 µM in the experiment on OVCAR-3 ovarian. Besides, the GI50 with DU-145 prostate was 4.17 µM; in the experiment with SF-295 CNS it was 2.36 µM; in the experiment with SF-268 CNS, 5.14 µM. Moreover, the TGI with SK-OV-3 ovarian was determined as 21.8 µM; with HCC-2998 colon, 2.7 µM; with OVCAR-4 ovarian, 17 µM; in the experiment with HOP-92 NSCLC, 23 µM; in the experiment with SW-620 colon it was 3.8 µM; in the experiment on OVCAR-3 ovarian, 11.1 µM. Further, the TGI stood at 16.2 µM with DU-145 prostate, 6.04 µM with SF-295 CNS and 21.4 µM in the experiment with SF-268 CNS.

Turning to `COC1=C(OC)C(=O)C(CCCCCCCCCCO)=C(C)C1=O`, the GI50 in the experiment on SK-OV-3 ovarian is 15.7 µM; in the experiment on HCC-2998 colon, 16.3 µM; in the experiment on OVCAR-4 ovarian, 1.29 µM; in the experiment with HOP-92 NSCLC, 2.53 µM; in the experiment on SW-620 colon, 14.7 µM; in the experiment with OVCAR-3 ovarian, 10.2 µM. For the same compound, the GI50 in the experiment with DU-145 prostate is 7.77 µM; in the experiment on SF-268 CNS, 9.61 µM; in the experiment on SK-MEL-2 melanoma, 3.2 µM. In addition, the TGI was found to be 29.2 µM in the experiment with SK-OV-3 ovarian; 33.5 µM in the experiment on HCC-2998 colon; 2.6 µM in the experiment on OVCAR-4 ovarian; 9.84 µM with HOP-92 NSCLC; 30.9 µM with SW-620 colon; 24.7 µM in the experiment with OVCAR-3 ovarian. Besides, the figures for the TGI with DU-145 prostate, with SF-268 CNS and in the experiment on SK-MEL-2 melanoma were 22.4 µM, 30.7 µM and 8.1 µM, respectively.

As for `CC(C)(C)c1cc(C(=O)O)c2c(c1)C(=O)OC2(c1ccccc1)c1ccccc1C(=O)O` (centres undefined), the TGI in the experiment with HCC-2998 colon, in the experiment with OVCAR-4 ovarian, in the experiment with HOP-92 NSCLC, in the experiment with SW-620 colon, in the experiment on OVCAR-3 ovarian and in the experiment with DU-145 prostate was greater than 100 µM throughout. For the same compound, the TGI in the experiment on SF-295 CNS, in the experiment with SF-268 CNS and with SK-MEL-2 melanoma was greater than 100 µM throughout. Further, in the experiment with DU-145 prostate, the GI50 is greater than 100 µM.
